Numbers after ± are expanded uncertainties.
Assay: xn = mol fraction of the nth substance listed
Details: 101 kPa, Liquid; for viscosity: Capillary tube (Ostwald / Ubbelohde) method; for mass density: Pycnometric method

CC1OC(C)OC(C)O1 (stereo unspecified) [2,4,6-trimethyl-1,3,5-trioxane] + COC(C)=O
Details	mass density, 298.15 K [kg/m3]	mass density, 303.15 K [kg/m3]	mass density, 308.15 K [kg/m3]	viscosity, 298.15 K [mPa·s]	viscosity, 303.15 K [mPa·s]	viscosity, 308.15 K [mPa·s]
x1 = 0.0203	928.4 ± 1.3	921.5 ± 1.2	918 ± 1	0.378 ± 0.008	0.359 ± 0.007	0.345 ± 0.007
x1 = 0.0405	930.1 ± 1.3	923.3 ± 1.2	919.7 ± 1.1	0.388 ± 0.008	0.367 ± 0.008	0.35 ± 0.007
x1 = 0.0601	931.8 ± 1.3	925 ± 1.2	921.4 ± 1.1	0.398 ± 0.008	0.373 ± 0.008	0.355 ± 0.007
x1 = 0.0807	933.4 ± 1.3	926.7 ± 1.2	923.1 ± 1.1	0.408 ± 0.008	0.38 ± 0.008	0.359 ± 0.007
x1 = 0.1002	935 ± 1.3	928.4 ± 1.2	924.7 ± 1.1	0.416 ± 0.008	0.386 ± 0.008	0.362 ± 0.008
x1 = 0.201	942.9 ± 1.3	936.6 ± 1.2	932.6 ± 1.1	0.455 ± 0.008	0.41 ± 0.008	0.372 ± 0.008
x1 = 0.3009	950.3 ± 1.3	944.2 ± 1.2	939.8 ± 1.2	0.489 ± 0.009	0.429 ± 0.008	0.374 ± 0.008
x1 = 0.397	956.9 ± 1.3	951 ± 1.2	946.3 ± 1.2	0.522 ± 0.009	0.45 ± 0.009	0.377 ± 0.008
x1 = 0.5001	963.5 ± 1.3	957.7 ± 1.2	952.7 ± 1.2	0.566 ± 0.01	0.481 ± 0.009	0.39 ± 0.008
x1 = 0.7002	974.8 ± 1.3	969.1 ± 1.3	963.5 ± 1.3	0.696 ± 0.011	0.593 ± 0.01	0.479 ± 0.009
x1 = 0.8005	979.8 ± 1.3	974 ± 1.3	968.2 ± 1.3	0.795 ± 0.012	0.688 ± 0.011	0.57 ± 0.01
x1 = 0.9001	984.3 ± 1.3	978.5 ± 1.3	972.5 ± 1.3	0.925 ± 0.013	0.816 ± 0.012	0.704 ± 0.011
x1 = 1	988.4 ± 1.3	982.6 ± 1.3	976.4 ± 1.4	1.107 ± 0.015	1.001 ± 0.014	0.907 ± 0.013

CC1OC(C)OC(C)O1 (stereo unspecified) [2,4,6-trimethyl-1,3,5-trioxane] + CCOC(C)=O
Details	mass density, 298.15 K [kg/m3]	mass density, 303.15 K [kg/m3]	mass density, 308.15 K [kg/m3]	viscosity, 298.15 K [mPa·s]	viscosity, 303.15 K [mPa·s]	viscosity, 308.15 K [mPa·s]
x1 = 0.0203	896.3 ± 1.2	890 ± 1.2	883.7 ± 1.2	0.435 ± 0.008	0.405 ± 0.008	0.392 ± 0.008
x1 = 0.04	898.7 ± 1.2	892.4 ± 1.2	886 ± 1.2	0.439 ± 0.008	0.411 ± 0.008	0.395 ± 0.008
x1 = 0.0601	901.1 ± 1.2	894.8 ± 1.2	888.5 ± 1.3	0.446 ± 0.008	0.419 ± 0.008	0.4 ± 0.008
x1 = 0.0799	903.5 ± 1.2	897.2 ± 1.3	890.8 ± 1.3	0.451 ± 0.008	0.421 ± 0.008	0.407 ± 0.008
x1 = 0.1002	905.8 ± 1.2	899.6 ± 1.3	893.2 ± 1.3	0.457 ± 0.008	0.428 ± 0.008	0.412 ± 0.008
x1 = 0.1957	916.6 ± 1.2	910.4 ± 1.3	904 ± 1.3	0.491 ± 0.009	0.455 ± 0.008	0.439 ± 0.008
x1 = 0.3	927.8 ± 1.2	921.6 ± 1.3	915.2 ± 1.3	0.53 ± 0.009	0.492 ± 0.008	0.468 ± 0.008
x1 = 0.4	937.9 ± 1.3	931.8 ± 1.3	925.4 ± 1.3	0.567 ± 0.009	0.53 ± 0.009	0.503 ± 0.009
x1 = 0.5001	947.4 ± 1.3	941.3 ± 1.3	935 ± 1.3	0.61 ± 0.009	0.574 ± 0.009	0.539 ± 0.009
x1 = 0.6001	956.4 ± 1.3	950.4 ± 1.3	944.1 ± 1.3	0.663 ± 0.01	0.628 ± 0.01	0.586 ± 0.009
x1 = 0.7	965 ± 1.3	959 ± 1.3	952.7 ± 1.3	0.739 ± 0.011	0.691 ± 0.01	0.639 ± 0.01
x1 = 0.8001	973.1 ± 1.3	967.3 ± 1.3	960.9 ± 1.4	0.832 ± 0.012	0.766 ± 0.011	0.708 ± 0.01
x1 = 0.9	980.9 ± 1.3	975.1 ± 1.3	968.8 ± 1.4	0.947 ± 0.013	0.861 ± 0.012	0.789 ± 0.011
x1 = 1	988.4 ± 1.3	982.6 ± 1.3	976.4 ± 1.4	1.107 ± 0.015	1.001 ± 0.014	0.907 ± 0.013

CC1OC(C)OC(C)O1 (stereo unspecified) [2,4,6-trimethyl-1,3,5-trioxane] + CCCCOC(C)=O
Details	mass density, 298.15 K [kg/m3]	mass density, 303.15 K [kg/m3]	mass density, 308.15 K [kg/m3]	viscosity, 298.15 K [mPa·s]	viscosity, 303.15 K [mPa·s]	viscosity, 308.15 K [mPa·s]
x1 = 0.0186	878.3 ± 1.1	873.2 ± 1.1	868.2 ± 1.1	0.688 ± 0.01	0.637 ± 0.01	0.581 ± 0.009
x1 = 0.0368	880.3 ± 1.1	875.1 ± 1.1	870.1 ± 1.1	0.693 ± 0.01	0.641 ± 0.01	0.586 ± 0.009
x1 = 0.0556	882.3 ± 1.1	877.1 ± 1.1	872 ± 1.1	0.696 ± 0.01	0.646 ± 0.01	0.588 ± 0.009
x1 = 0.0744	884.3 ± 1.1	879.1 ± 1.1	874 ± 1.1	0.697 ± 0.01	0.65 ± 0.01	0.592 ± 0.009
x1 = 0.093	886.3 ± 1.1	881 ± 1.1	875.9 ± 1.1	0.699 ± 0.01	0.653 ± 0.01	0.594 ± 0.01
x1 = 0.1873	896.5 ± 1.2	891.1 ± 1.2	885.7 ± 1.1	0.713 ± 0.01	0.668 ± 0.01	0.612 ± 0.01
x1 = 0.2831	906.9 ± 1.2	901.4 ± 1.2	895.9 ± 1.2	0.728 ± 0.011	0.685 ± 0.01	0.629 ± 0.01
x1 = 0.3807	917.7 ± 1.2	912 ± 1.2	906.4 ± 1.2	0.755 ± 0.011	0.706 ± 0.01	0.649 ± 0.01
x1 = 0.4799	928.6 ± 1.2	922.9 ± 1.2	917.2 ± 1.2	0.786 ± 0.011	0.735 ± 0.011	0.676 ± 0.01
x1 = 0.5802	939.8 ± 1.2	934.1 ± 1.2	928.2 ± 1.3	0.831 ± 0.012	0.771 ± 0.011	0.708 ± 0.01
x1 = 0.6828	951.5 ± 1.3	945.7 ± 1.3	939.7 ± 1.3	0.882 ± 0.012	0.816 ± 0.012	0.746 ± 0.011
x1 = 0.7863	963.2 ± 1.3	957.6 ± 1.3	951.4 ± 1.3	0.945 ± 0.013	0.867 ± 0.012	0.793 ± 0.011
x1 = 0.8924	975.6 ± 1.3	969.9 ± 1.3	963.7 ± 1.3	1.025 ± 0.014	0.933 ± 0.013	0.848 ± 0.012
x1 = 1	988.4 ± 1.3	982.6 ± 1.3	976.4 ± 1.4	1.107 ± 0.015	1.001 ± 0.014	0.907 ± 0.013

— the NIST ThermoML archive (doi:10.1016/j.jct.2006.03.014)
